From ChEMBL document CHEMBL1201862, “PubChem BioAssay data set” (2004)
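Step 1: Grow cells in 96-well plates. Step 2: Expose to compound for 48 hours at 5 concentrations. Step 3: Interpolate endpoints linearly; if unreached, use highest concentration. The concentration for 50% growth inhibition is given as GI50.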 Active and inactive are the calls of the source. Cut-off read from the data, not from the text of the source: active = GI50 up to about 1.1 µM and inactive = higher.

Experiments:
Assay in all cases: NCI tumour cell line growth inhibition, 48 h
EKVX = system: EKVX
BT-549 = system: BT-549
T47D = system: T47D
RPMI-8226 = system: RPMI-8226
HOP-92 = system: HOP-92
COLO 205 = system: COLO 205
Hs-578T = system: Hs-578T
SR = system: SR
NCI/ADR-RES = system: NCI/ADR-RES
SK-MEL-28 = system: SK-MEL-28
UO-31 = system: UO-31
ACHN = system: ACHN
UACC-257 = system: UACC-257
CAKI-1 = system: CAKI-1
DU-145 = system: DU-145
IGROV-1 = system: IGROV-1
PC-3 = system: PC-3
M14 = system: M14
K562 = system: K562
SN12C = system: SN12C
HCT-116 = system: HCT-116
SF-539 = system: SF-539
HCT-15 = system: HCT-15
HOP-62 = system: HOP-62
OVCAR-3 = system: OVCAR-3
KM12 = system: KM12
MDA-N = system: MDA-N
SNB-75 = system: SNB-75
A549 = system: A549
NCI-H460 = system: NCI-H460
MDA-MB-231 = system: MDA-MB-231
UACC-62 = system: UACC-62
SF-268 = system: SF-268
SNB-19 = system: SNB-19
OVCAR-5 = system: OVCAR-5
MDA-MB-435 = system: MDA-MB-435
OVCAR-8 = system: OVCAR-8
CCRF-CEM = system: CCRF-CEM
SK-MEL-2 = system: SK-MEL-2
HL-60 = system: HL-60
SK-MEL-5 = system: SK-MEL-5
MOLT-4 = system: MOLT-4
RXF 393 = system: RXF 393
HCC 2998 = system: HCC 2998
SW-620 = system: SW-620
OVCAR-4 = system: OVCAR-4
TK-10 = system: TK-10
SK-OV-3 = system: SK-OV-3
U-251 = system: U-251
SF-295 = system: SF-295
A498 = system: A498
MCF7 = system: MCF7
786-0 = system: 786-0
LOX IMVI = system: LOX IMVI
HT-29 = system: HT-29
Malme-3M = system: Malme-3M
NCI-H23 = system: NCI-H23
NCI-H522 = system: NCI-H522
NCI-H226 = system: NCI-H226

COc1cc(/C=C2\N=C(c3ccccc3)N(/N=C/c3cc4cc(C)ccc4nc3Cl)C2=O)ccc1O
GI50 (EKVX): 37.2 µM (inactive) | GI50 (BT-549): 63.8 µM (inactive) | GI50 (T47D): 56.1 µM (inactive) | GI50 (RPMI-8226): 31.6 µM (inactive) | GI50 (HOP-92): 31.6 µM (inactive) | GI50 (COLO 205): 37.2 µM (inactive) | GI50 (Hs-578T): 40.6 µM (inactive) | GI50 (SR): 18.9 µM (inactive) | GI50 (NCI/ADR-RES): 31.6 µM (inactive) | GI50 (SK-MEL-28): > 100 µM (inactive) | GI50 (UO-31): 32.5 µM (inactive) | GI50 (ACHN): 36.6 µM (inactive) | GI50 (UACC-257): 49.8 µM (inactive) | GI50 (CAKI-1): 78 µM (inactive) | GI50 (DU-145): 65.6 µM (inactive) | GI50 (IGROV-1): 30.1 µM (inactive) | GI50 (PC-3): 20 µM (inactive) | GI50 (M14): 42.1 µM (inactive) | GI50 (K562): 45.8 µM (inactive) | GI50 (SN12C): 30 µM (inactive) | GI50 (HCT-116): 20.4 µM (inactive) | GI50 (SF-539): 35.2 µM (inactive) | GI50 (HCT-15): 40.1 µM | GI50 (HOP-62): 49.3 µM (inactive) | GI50 (OVCAR-3): 38.9 µM (inactive) | GI50 (KM12): 37.2 µM (inactive) | GI50 (MDA-N): 15.9 µM (inactive) | GI50 (SNB-75): 32.7 µM (inactive) | GI50 (A549): 37.5 µM (inactive) | GI50 (NCI-H460): 30.5 µM (inactive) | GI50 (MDA-MB-231): 27.8 µM (inactive) | GI50 (UACC-62): 37.7 µM (inactive) | GI50 (SF-268): 39.2 µM (inactive) | GI50 (SNB-19): 67.8 µM (inactive) | GI50 (OVCAR-5): > 100 µM (inactive) | GI50 (MDA-MB-435): 17.3 µM (inactive) | GI50 (OVCAR-8): 49.7 µM (inactive) | GI50 (CCRF-CEM): 16.2 µM (inactive) | GI50 (SK-MEL-2): 12.9 µM (inactive) | GI50 (HL-60): 24.9 µM (inactive) | GI50 (SK-MEL-5): 37.2 µM (inactive) | GI50 (MOLT-4): 23.4 µM (inactive) | GI50 (RXF 393): 34 µM (inactive) | GI50 (HCC 2998): 35.5 µM (inactive) | GI50 (SW-620): 39.2 µM (inactive) | GI50 (OVCAR-4): 43.8 µM (inactive) | GI50 (TK-10): 43.2 µM (inactive) | GI50 (SK-OV-3): 88.1 µM (inactive) | GI50 (U-251): 35.7 µM (inactive) | GI50 (SF-295): 48.1 µM (inactive) | GI50 (A498): 16.6 µM (inactive) | GI50 (MCF7): 25.1 µM (inactive) | GI50 (786-0): 37.6 µM (inactive) | GI50 (LOX IMVI): 37 µM (inactive) | GI50 (HT-29): 33.8 µM (inactive)

CC(C)=CCNc1ncnc2c1c(C#N)cn2C1OC(CO)C(O)C1O (stereo not given)
GI50 (EKVX): 10.4 µM (inactive) | GI50 (BT-549): > 100 µM (inactive) | GI50 (Malme-3M): > 77.6 µM (inactive) | GI50 (T47D): 0.0386 µM (active) | GI50 (RPMI-8226): 3.56 µM (inactive) | GI50 (HOP-92): 24.3 µM (inactive) | GI50 (NCI-H23): > 56.5 µM (inactive) | GI50 (COLO 205): 0.716 µM (active) | GI50 (Hs-578T): 56.9 µM (inactive) | GI50 (SR): 5.45 µM (inactive) | GI50 (NCI/ADR-RES): > 82 µM (inactive) | GI50 (SK-MEL-28): > 100 µM (inactive) | GI50 (UO-31): 32.8 µM (inactive) | GI50 (ACHN): 9.82 µM (inactive) | GI50 (UACC-257): > 100 µM (inactive) | GI50 (CAKI-1): 73.8 µM (inactive) | GI50 (DU-145): 10.9 µM (inactive) | GI50 (NCI-H522): 7.64 µM (inactive) | GI50 (IGROV-1): 0.431 µM (active) | GI50 (PC-3): 32.5 µM (inactive) | GI50 (M14): > 58.3 µM (inactive) | GI50 (K562): 3.86 µM (inactive) | GI50 (SN12C): 12.7 µM (inactive) | GI50 (HCT-116): 4.61 µM (inactive) | GI50 (SF-539): > 72.1 µM (inactive) | GI50 (HCT-15): 0.603 µM | GI50 (NCI-H226): 39.2 µM (inactive) | GI50 (HOP-62): 53.1 µM (inactive) | GI50 (OVCAR-3): 3.66 µM (inactive) | GI50 (KM12): 1.36 µM (inactive) | GI50 (MDA-N): 42.1 µM (inactive) | GI50 (SNB-75): 75.7 µM (inactive) | GI50 (A549): 8.32 µM (inactive) | GI50 (NCI-H460): 4.02 µM (inactive) | GI50 (MDA-MB-231): 33.7 µM (inactive) | GI50 (UACC-62): 39.7 µM (inactive) | GI50 (SF-268): > 100 µM (inactive) | GI50 (SNB-19): > 53.8 µM (inactive) | GI50 (OVCAR-5): > 66.2 µM (inactive) | GI50 (MDA-MB-435): 31.1 µM (inactive) | GI50 (OVCAR-8): 50.7 µM (inactive) | GI50 (CCRF-CEM): 3.85 µM (inactive) | GI50 (SK-MEL-2): 39.7 µM (inactive) | GI50 (HL-60): 9.12 µM (inactive) | GI50 (SK-MEL-5): 21.7 µM (inactive) | GI50 (MOLT-4): 65.2 µM (inactive) | GI50 (RXF 393): 71.1 µM (inactive) | GI50 (SW-620): 10 µM (inactive) | GI50 (OVCAR-4): 1.1 µM (active) | GI50 (TK-10): 1.21 µM (inactive) | GI50 (SK-OV-3): 16.9 µM (inactive) | GI50 (U-251): > 67.5 µM (inactive) | GI50 (SF-295): > 100 µM (inactive) | GI50 (A498): 24 µM (inactive) | GI50 (MCF7): < 0.019 µM (active) | GI50 (786-0): > 100 µM (inactive) | GI50 (LOX IMVI): > 79.8 µM (inactive) | GI50 (HT-29): 12.3 µM (inactive)

O=CN(O)CC(=O)O
GI50 (EKVX): > 100 µM (inactive) | GI50 (BT-549): > 100 µM (inactive) | GI50 (Malme-3M): > 100 µM (inactive) | GI50 (T47D): > 100 µM (inactive) | GI50 (RPMI-8226): > 100 µM (inactive) | GI50 (HOP-92): > 100 µM (inactive) | GI50 (NCI-H23): > 100 µM (inactive) | GI50 (COLO 205): > 100 µM (inactive) | GI50 (Hs-578T): > 100 µM (inactive) | GI50 (SR): > 100 µM (inactive) | GI50 (NCI/ADR-RES): > 100 µM (inactive) | GI50 (SK-MEL-28): > 100 µM (inactive) | GI50 (UO-31): > 100 µM (inactive) | GI50 (ACHN): > 100 µM (inactive) | GI50 (UACC-257): > 100 µM (inactive) | GI50 (DU-145): > 100 µM (inactive) | GI50 (IGROV-1): > 100 µM (inactive) | GI50 (PC-3): > 100 µM (inactive) | GI50 (M14): > 100 µM (inactive) | GI50 (K562): > 100 µM (inactive) | GI50 (SN12C): > 100 µM (inactive) | GI50 (HCT-116): > 100 µM (inactive) | GI50 (SF-539): > 100 µM (inactive) | GI50 (HCT-15): > 100 µM | GI50 (NCI-H226): > 100 µM (inactive) | GI50 (HOP-62): > 100 µM (inactive) | GI50 (OVCAR-3): > 100 µM (inactive) | GI50 (KM12): > 100 µM (inactive) | GI50 (MDA-N): > 100 µM (inactive) | GI50 (SNB-75): > 100 µM (inactive) | GI50 (A549): > 100 µM (inactive) | GI50 (NCI-H460): > 100 µM (inactive) | GI50 (MDA-MB-231): > 100 µM (inactive) | GI50 (UACC-62): > 100 µM (inactive) | GI50 (SF-268): > 100 µM (inactive) | GI50 (SNB-19): > 100 µM (inactive) | GI50 (OVCAR-5): > 100 µM (inactive) | GI50 (MDA-MB-435): > 100 µM (inactive) | GI50 (OVCAR-8): > 100 µM (inactive) | GI50 (CCRF-CEM): > 100 µM (inactive) | GI50 (SK-MEL-2): > 100 µM (inactive) | GI50 (HL-60): > 100 µM (inactive) | GI50 (SK-MEL-5): > 100 µM (inactive) | GI50 (MOLT-4): > 100 µM (inactive) | GI50 (RXF 393): > 100 µM (inactive) | GI50 (HCC 2998): > 100 µM (inactive) | GI50 (SW-620): > 100 µM (inactive) | GI50 (OVCAR-4): > 100 µM (inactive) | GI50 (TK-10): > 100 µM (inactive) | GI50 (SK-OV-3): > 100 µM (inactive) | GI50 (U-251): > 100 µM (inactive) | GI50 (SF-295): > 100 µM (inactive) | GI50 (A498): > 100 µM (inactive) | GI50 (MCF7): > 100 µM (inactive) | GI50 (786-0): > 100 µM (inactive) | GI50 (LOX IMVI): > 100 µM (inactive) | GI50 (HT-29): > 100 µM (inactive)
